Source: patent publication US20090117205A1, “Quinolone-containing medicinal composition” (Daiichi Pharmaceutical CO., LTD, priority 2004, published 2009)
Values after ≈ are worked out from the molar mass of the structure shown. Where two headings read alike, the source gives them in different places.

Assays:
Assay type in all cases: physicochemical
[1] = Stability test of the lyophilized product produced from drug solution of different pH
Source text: Lyophilized products were produced from the drug solution of different pH according to the evaluation of pH of the drug solution used for the lyophilization (1) to evaluate the stability of the Compound (1).

[2] = Evaluation of the concentration of the drug solution used for the lyophilization (cake formation)
[3] = Solubility of Compound (1) in water with change in pH
Procedure: Change in solubility with the change in pH of the drug solution of the Compound (1) was measured by the method commonly used in the art.

[4] = lyophilized product from drug solution pH 2.5, 60° C., 1 W
[5] = lyophilized product from drug solution pH 2.5, 60° C., 2 W
[6] = lyophilized product from drug solution pH 2.5, Initial
[7] = lyophilized product from drug solution pH 3.5, 60° C., 1 W
[8] = lyophilized product from drug solution pH 3.5, 60° C., 2 W
[9] = lyophilized product from drug solution pH 3.5, Initial
[10] = lyophilized product from drug solution pH 4.5, 60° C., 1 W
[11] = lyophilized product from drug solution pH 4.5, 60° C., 2 W
[12] = lyophilized product from drug solution pH 4.5, Initial

Stability of the Compound (1) in the lyophilized products ([1]; drug solution at a pH in the range of 2.5 to 4.5): sufficient stability | Appearance [1, 4]: Yellow | Content in relation to Initial amount (%) [1, 4]: 100.8% | Content in relation to Nominal amount (%) [1, 4]: 96.0% | Total amount of related substance (%) [1, 4]: 0.95% | pH [1, 4]: 2.97 | Appearance [1, 5]: Yellow | Content in relation to Initial amount (%) [1, 5]: 96.5% | Content in relation to Nominal amount (%) [1, 5]: 91.9% | Total amount of related substance (%) [1, 5]: 1.10% | pH [1, 5]: 3.05 | Appearance [1, 6]: Yellow | Content in relation to Initial amount (%) [1, 6]: 100.0% | Content in relation to Nominal amount (%) [1, 6]: 95.3% | Total amount of related substance (%) [1, 6]: 0.92% | pH [1, 6]: 2.89 | Appearance [1, 7]: Yellow | Content in relation to Initial amount (%) [1, 7]: 99.4% | Content in relation to Nominal amount (%) [1, 7]: 96.0% | Total amount of related substance (%) [1, 7]: 0.96% | pH [1, 7]: 3.81 | Appearance [1, 8]: Yellow | Content in relation to Initial amount (%) [1, 8]: 99.7% | Content in relation to Nominal amount (%) [1, 8]: 96.2% | Total amount of related substance (%) [1, 8]: 1.17% | pH [1, 8]: 3.86 | Appearance [1, 9]: Yellow | Content in relation to Initial amount (%) [1, 9]: 100.0% | Content in relation to Nominal amount (%) [1, 9]: 96.5% | Total amount of related substance (%) [1, 9]: 0.93% | pH [1, 9]: 3.73 | Appearance [1, 10]: Yellow | Content in relation to Initial amount (%) [1, 10]: 97.8% | Content in relation to Nominal amount (%) [1, 10]: 91.1% | Total amount of related substance (%) [1, 10]: 1.13% | pH [1, 10]: 4.51 | Appearance [1, 11]: Yellow | Content in relation to Initial amount (%) [1, 11]: 100.5% | Content in relation to Nominal amount (%) [1, 11]: 93.5% | Total amount of related substance (%) [1, 11]: 1.31% | pH [1, 11]: 4.53 | Appearance [1, 12]: Yellow | Content in relation to Initial amount (%) [1, 12]: 100.0% | Content in relation to Nominal amount (%) [1, 12]: 93.1% | Total amount of related substance (%) [1, 12]: 0.93% | pH [1, 12]: 4.47 | Cake formation (number of vials with cake formation/number of vials tested) ([2]; drug solution 1.25 mg/mL): 0/5 | Cake formation (number of vials with cake formation/number of vials tested) ([2]; drug solution 2.5 mg/mL): 4/5 | Cake formation (number of vials with cake formation/number of vials tested) ([2]; drug solution 5 mg/mL): 4/5 | Cake formation (number of vials with cake formation/number of vials tested) ([2]; drug solution 10 mg/mL): 5/5 | Cake formation (number of vials with cake formation/number of vials tested) ([2]; drug solution 15 mg/mL): 5/5 | Cake formation (number of vials with cake formation/number of vials tested) ([2]; drug solution 20 mg/mL): 5/5 | solubility at 1 week ([3]; aqueous buffer, 5° C., pH 3.5, after 1 W): ≤ 19.6 mg/mL | solubility at 0 week ([3]; aqueous buffer, 5° C., pH 3.5, immediately after preparation): ≤ 20.1 mg/mL | solubility at 1 week ([3]; aqueous buffer, 5° C., pH 4.0, after 1 W): 19 mg/mL (≈ 47.3 mM) | solubility at 0 week ([3]; aqueous buffer, 5° C., pH 4.0, immediately after preparation): ≤ 20.1 mg/mL | solubility at 1 week ([3]; aqueous buffer, 5° C., pH 4.5, after 1 W): 18.8 mg/mL (≈ 46.8 mM) | solubility at 0 week ([3]; aqueous buffer, 5° C., pH 4.5, immediately after preparation): ≤ 20 mg/mL | solubility at 1 week ([3]; aqueous buffer, 5° C., pH 5.0, after 1 W): 18.4 mg/mL (≈ 45.8 mM) | solubility at 1 week ([3]; aqueous buffer, 5° C., pH 5.5, after 1 W): 5.4 mg/mL (≈ 13.5 mM) | solubility at 1 week ([3]; aqueous buffer, 5° C., pH 6.0, after 1 W): 0.7 mg/mL (≈ 1.74 mM) | solubility at 1 week ([3]; aqueous buffer, 25° C., pH 3.5, after 1 W): ≤ 20.1 mg/mL | solubility at 0 week ([3]; aqueous buffer, 25° C., pH 3.5, immediately after preparation): ≤ 20.1 mg/mL | solubility at 1 week ([3]; aqueous buffer, 25° C., pH 4.0, after 1 W): 19.6 mg/mL (≈ 48.8 mM) | solubility at 0 week ([3]; aqueous buffer, 25° C., pH 4.0, immediately after preparation): ≤ 20.1 mg/mL | solubility at 1 week ([3]; aqueous buffer, 25° C., pH 4.5, after 1 W): 20.1 mg/mL (≈ 50.1 mM) | solubility at 0 week ([3]; aqueous buffer, 25° C., pH 4.5, immediately after preparation): ≤ 20.1 mg/mL | solubility at 1 week ([3]; aqueous buffer, 25° C., pH 5.0, after 1 W): 18.7 mg/mL (≈ 46.6 mM) | solubility at 1 week ([3]; aqueous buffer, 25° C., pH 5.5, after 1 W): 4.8 mg/mL (≈ 12 mM) | solubility at 1 week ([3]; aqueous buffer, 25° C., pH 6.0, after 1 W): 0.7 mg/mL (≈ 1.74 mM) | solubility ([3]; aqueous buffer, pH up to pH 5, read-out: Concentration that can be attained in the solution): ≥ 10 mg/mL | solubility ([3]; pH 4.5, aqueous buffer, pH up to 4.5, read-out: Concentration that can be attained in the solution): ≥ 20 mg/mL
SMILES: COc1c(N2CC[C@@H](C3(N)CC3)C2)ccc2c(=O)c(C(=O)O)cn([C@@H]3C[C@@H]3F)c12 [Compound (1), 7-[3-(R)-(1-aminocyclopropyl)pyrrolidine-1-yl]-1-[2-(S)-fluoro-1-(R)-cyclopropyl]-1,4-dihydro-8-methoxy-4-oxoquinoline-3-carboxylic acid]
